The target in assay [1] is T1, human L-Selectin-IgG-chimera (Homo sapiens, UniProt P14151).
T1 construct: IgG (chimera partner)
The experiment in a line: Sialyl Lewis X Tyrosine Sulfate Assay (sLex TSA), L-selectin. The settings on record: inhibition of binding of sLex-tyrosine sulfate polyacrylamide ligand complex to selectin chimera. How it is done: (§1) Compounds of the present invention are assayed on a molecular level for their ability to inhibit the binding of P-, L-, or E-selectin chimeric molecules to sLe^x and tyrosinesulfate residues linked to a polymeric matrix as a PSGL-1 substitute. Selected IC50-values are determined.
(§2) Microtiter plates are coated overnight in carbonate buffer pH9.6 with goat anti human Fc mAB (10 μg/ml). After washing in assay buffer (25 mM 4-(2-hydroxyethyl)-1-piperazineethanesulfonic acid (HEPES), 150 mM NaCl, 1 mM CaCl2 pH7.4) and blocking (3% bovine serum albumin (BSA) in assay buffer) plates are incubated for 2 h at 37° C. with human P-Selectin-IgG-chimera (0.61 nM respectively 150 ng/mL) or human L-Selectin-IgG-chimera (0.61 nM respectively 89 ng/mL) or human E-Selectin-IgG-chimera (0.61 nM respectively 131 ng/mL). 5 μl of sLe^x-tyrosine sulfate polyacrylamide (1 mg/ml) carrying 15% sLe^x, 10% Tyrosine-sulfate and 5% biotin is complexed with 20 μl Streptavidin-Peroxidase solution (1 mg/ml) and 25 μl assay buffer without CaCl2. For use in the assay, the ligand complex is diluted 1:10000 in assay buffer and further diluted 1:1 with varying amounts of compounds in assay buffer incl. 2% DMSO. This mixture is added to the wells precoated with E- or P-selectin. After incubation for 2 h at 37° C., wells are washed for six times with in assay buffer incl. 0.005% Polyoxyethylenesorbitan monolaurate (TWEEN 20), developed for 10-15 min with 20 μl 3,3′,5,5′-tetramethylbenzidine (TMB)/H2O2 substrate solution and stopped with 20 μl 1M H2SO4. Bound sLe^x-Tyrosine sulfate ligand complex is determined by measuring optical density at 450 nm vs. 620 nm in a Fusion alpha-FP reader (sold from Packard Bioscience, Dreieich, Germany).

For assay [2], the target named is T2, human E-Selectin-IgG-chimera (Homo sapiens, UniProt P16581). The experiment in a line: Sialyl Lewis X Tyrosine Sulfate Assay (sLex TSA), E-selectin. Also on record: IgG (chimera partner). To be noted: inhibition of binding of sLex-tyrosine sulfate polyacrylamide ligand complex to selectin chimera. Here is the method:
as §1, §2

Assay [3] deals with T2, human E-Selectin-IgG-chimera. The assay can be described thus: Flow chamber assay, cell adhesion and rolling under flow conditions, E-selectin. Type of assay: cell-based. To be noted: 125 μM compound, HL-60 cells, flow shear 1 dyne/cm^2, dish coated 2.5 μg/ml E-selectin-IgG chimera. How it is done: (§3) Flow Chamber Assay/Cell Adhesion and Rolling Under Flow Conditions
(§4) To assess the capability of compounds to inhibit cell binding under dynamic conditions resembling the flow in a blood vessel, flow chamber assays addressing/testing binding of HL-60 cells/various cell lines to P-selectin, L-selectin and E-selectin chimeric molecules are performed.
(§5) Cell attachment under flow conditions are determined using a parallel flow chamber system. A 35 mm polystyrene culture dish is coated for 1 hour at room temperature with coating buffer (50 mM tris-(hydroxymethyl)aminomethane buffer (Tris), 150 mM NaCl, 2 mM CaCl2; pH 7.4) containing human E- or P-selectin-IgG chimera at concentrations of 2.5 μg/ml or 10 μg/ml, respectively. After removal of the coating solution non specific binding sites are blocked for an additional hour with 1% BSA in coating buffer at room temperature. After washing with assay buffer (“Roswell Park Memorial Institute 1640” (RPMI 1640)+10 mM HEPES) the dish is fitted into a parallel plate laminar flow chamber (sold from Glycotech, Rockville, Md.) and mounted on an inverted phase-contrast microscope (sold from Olympus, Hamburg, Germany) equipped with a CCD camera (JVC) that is connected to a PC. Employing a peristaltic pump (sold from Ismatec, Wertheim-Mondfeld, Germany) the re-circulating system is equilibrated with assay buffer containing 125 μM compound or vehicle control (DMSO). Cells (1 million/ml) are added to the chamber and allowed to distribute for 2 minutes at a high flow rate. The flow rate is then decreased resulting in a calculated flow shear of 1 dyne/cm^2. Video sequences of 10 low power fields are digitally recorded after 5 minutes continuous flow. The percentage of inhibition is calculated from the mean number of cells per field that attached to the coated dish surface in the presence versus absence of compound […].
(§6) Data from Flow Chamber Assay for E- and P-Selectin

Assay [4] addresses T3, human P-Selectin-IgG-chimera (Homo sapiens, UniProt P16109). The experiment in a line: Sialyl Lewis X Tyrosine Sulfate Assay (sLex TSA), P-selectin. Also on record: IgG (chimera partner). The settings on record: inhibition of binding of sLex-tyrosine sulfate polyacrylamide ligand complex to selectin chimera. How it is done:
as §1, §2

Assay [5] deals with T3, human P-Selectin-IgG-chimera. The experiment in a line: Flow chamber assay, cell adhesion and rolling under flow conditions, P-selectin. The settings on record: 125 μM compound, HL-60 cells, flow shear 1 dyne/cm^2, dish coated 10 μg/ml P-selectin-IgG chimera. The format is cell-based. Here is the method:
as §3, §4, §5, §6

T3 sequence (P16109 with tags, fused parts or gaps limits assumed): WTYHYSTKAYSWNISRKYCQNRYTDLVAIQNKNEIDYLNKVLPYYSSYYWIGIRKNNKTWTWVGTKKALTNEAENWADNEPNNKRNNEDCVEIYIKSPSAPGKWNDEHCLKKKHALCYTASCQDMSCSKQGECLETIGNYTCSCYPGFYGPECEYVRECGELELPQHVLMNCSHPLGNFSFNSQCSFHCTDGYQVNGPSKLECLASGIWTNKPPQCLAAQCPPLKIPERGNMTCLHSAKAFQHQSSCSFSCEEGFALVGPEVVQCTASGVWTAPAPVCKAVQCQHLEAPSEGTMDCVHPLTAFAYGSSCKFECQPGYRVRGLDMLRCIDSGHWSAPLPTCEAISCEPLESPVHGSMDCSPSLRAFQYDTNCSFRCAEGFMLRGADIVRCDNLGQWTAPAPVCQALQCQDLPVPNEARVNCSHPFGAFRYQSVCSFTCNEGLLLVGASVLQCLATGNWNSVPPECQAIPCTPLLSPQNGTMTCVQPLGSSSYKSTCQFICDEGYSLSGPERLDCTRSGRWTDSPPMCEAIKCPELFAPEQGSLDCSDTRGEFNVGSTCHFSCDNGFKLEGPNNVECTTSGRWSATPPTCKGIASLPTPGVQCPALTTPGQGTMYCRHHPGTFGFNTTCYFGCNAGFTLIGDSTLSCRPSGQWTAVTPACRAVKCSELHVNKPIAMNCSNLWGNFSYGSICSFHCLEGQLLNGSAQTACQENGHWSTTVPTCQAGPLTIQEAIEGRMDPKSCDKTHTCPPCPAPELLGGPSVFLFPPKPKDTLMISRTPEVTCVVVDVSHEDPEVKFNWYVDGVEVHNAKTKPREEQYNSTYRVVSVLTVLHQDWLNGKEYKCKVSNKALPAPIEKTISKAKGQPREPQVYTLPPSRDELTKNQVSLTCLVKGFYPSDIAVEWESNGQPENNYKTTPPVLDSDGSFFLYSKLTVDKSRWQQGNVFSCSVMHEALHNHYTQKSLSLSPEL
T1 sequence (P14151 with tags, fused parts or gaps limits assumed): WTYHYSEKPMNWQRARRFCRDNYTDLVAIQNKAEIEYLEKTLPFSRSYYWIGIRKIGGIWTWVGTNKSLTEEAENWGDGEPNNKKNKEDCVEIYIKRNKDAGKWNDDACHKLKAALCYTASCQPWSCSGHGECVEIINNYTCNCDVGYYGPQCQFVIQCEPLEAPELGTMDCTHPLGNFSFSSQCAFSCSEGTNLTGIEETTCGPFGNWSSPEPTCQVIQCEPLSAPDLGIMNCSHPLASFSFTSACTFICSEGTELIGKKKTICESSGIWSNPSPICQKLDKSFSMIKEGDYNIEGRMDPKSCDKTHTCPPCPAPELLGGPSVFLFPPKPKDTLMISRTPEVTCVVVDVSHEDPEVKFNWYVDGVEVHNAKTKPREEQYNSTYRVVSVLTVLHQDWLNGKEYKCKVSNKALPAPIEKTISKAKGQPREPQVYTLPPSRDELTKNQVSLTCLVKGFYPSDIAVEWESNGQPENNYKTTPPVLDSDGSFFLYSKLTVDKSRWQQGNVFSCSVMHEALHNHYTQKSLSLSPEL
T2 sequence (P16581 with tags, fused parts or gaps limits assumed): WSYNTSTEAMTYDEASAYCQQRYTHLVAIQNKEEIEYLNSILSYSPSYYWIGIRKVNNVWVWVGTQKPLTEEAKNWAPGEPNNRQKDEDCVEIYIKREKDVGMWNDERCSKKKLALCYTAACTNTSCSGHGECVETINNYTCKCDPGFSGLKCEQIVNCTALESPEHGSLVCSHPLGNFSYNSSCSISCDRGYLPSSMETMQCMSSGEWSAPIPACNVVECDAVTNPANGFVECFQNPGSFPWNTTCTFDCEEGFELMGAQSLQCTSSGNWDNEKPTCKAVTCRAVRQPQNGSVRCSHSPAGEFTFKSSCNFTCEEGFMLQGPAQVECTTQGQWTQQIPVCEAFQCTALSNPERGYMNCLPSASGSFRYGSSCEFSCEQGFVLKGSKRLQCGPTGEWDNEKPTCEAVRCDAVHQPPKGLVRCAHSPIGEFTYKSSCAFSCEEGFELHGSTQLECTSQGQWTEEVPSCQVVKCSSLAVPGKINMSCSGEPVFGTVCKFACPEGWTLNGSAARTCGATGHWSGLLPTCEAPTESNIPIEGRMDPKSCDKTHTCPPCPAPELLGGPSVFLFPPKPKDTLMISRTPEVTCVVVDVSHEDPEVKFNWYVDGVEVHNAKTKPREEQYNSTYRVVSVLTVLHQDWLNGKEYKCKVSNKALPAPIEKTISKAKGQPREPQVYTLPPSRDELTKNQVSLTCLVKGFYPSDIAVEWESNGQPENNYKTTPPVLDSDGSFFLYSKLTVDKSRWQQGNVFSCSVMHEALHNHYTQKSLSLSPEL

`O=C(O)Cc1cccc(-c2cc(CCCCCCc3ccc(O[C@H]4O[C@H](CO)[C@@H](O)[C@H](O)[C@@H]4O)c(-c4cccc(CC(=O)O)c4)c3)ccc2O[C@H]2O[C@H](CO)[C@@H](O)[C@H](O)[C@@H]2O)c1` [Bimosiamose, bimosiamose, reference compound]: the IC50 in assay [1] was more than 500 µM.

As to `O=C(Cc1c(O)cc(O)cc1O)Nc1cccc(C(=O)O)c1` [Compound 18, 3-[2-(2,4,6-Trihydroxy-phenyl)-acetylamino]-benzoic acid], the IC50 in assay [2] came to 41.2 µM; in assay [1], 35.1 µM; in assay [4], 37.1 µM. Also, the “E-Selectin [Ratio]: normalized ratio of %-inhibition of compound divided by %-inhibition of bimosiamose” value in assay [3] amounted to 0.80 Ratio. For the same compound, the “P-Selectin [Ratio]: normalized ratio of %-inhibition of compound divided by %-inhibition of bimosiamose” value in assay [5] was found to be 1.07 Ratio.

In the case of `Cc1oc(-c2ccc(NC(=O)Cc3c(O)cc(O)cc3O)cc2)cc1C(=O)O` [Compound 19, 2-Methyl-5-{4-[2-(2,4,6-trihydroxy-phenyl)-acetylamino]-phenyl}-furan-3-carboxylic acid], the IC50 came out at 12.4 µM in assay [2], 22.1 µM in assay [1] and 20.7 µM in assay [4]. In assay [3], the “E-Selectin [Ratio]: normalized ratio of %-inhibition of compound divided by %-inhibition of bimosiamose” value is 0.75 Ratio. Besides, the “P-Selectin [Ratio]: normalized ratio of %-inhibition of compound divided by %-inhibition of bimosiamose” value in assay [5] amounted to 1.27 Ratio.

For the compound `O=C(O)Cc1ccc(-c2ccccc2NC(=O)Cc2c(O)cc(O)cc2O)s1` [Compound 25, (5-{2-[2-(2,4,6-Trihydroxy-phenyl)-acetylamino]-phenyl}-thiophen-2-yl)-acetic acid], the values for the IC50 in assay [2], in assay [1] and in assay [4] were 105 µM, 95.9 µM and 87.9 µM, respectively. Moreover, the “E-Selectin [Ratio]: normalized ratio of %-inhibition of compound divided by %-inhibition of bimosiamose” value in assay [3] came to 0.94 Ratio. Besides, the “P-Selectin [Ratio]: normalized ratio of %-inhibition of compound divided by %-inhibition of bimosiamose” value in assay [5] is 1.65 Ratio.

Consider `O=C(Nc1ccccc1-c1ccc(C(=O)O)s1)c1cccc(-c2c(O)cc(O)cc2O)c1` [Compound 26, 5-{2-[(2′,4′,6′-trihydroxy-biphenyl-3-carbonyl)-amino]-phenyl}-thiophene-2-carboxylic acid], for which the values for the IC50 in assay [2], in assay [1] and in assay [4] were 33.3 µM, 28.2 µM and 27.8 µM, respectively. In addition, the “E-Selectin [Ratio]: normalized ratio of %-inhibition of compound divided by %-inhibition of bimosiamose” value in assay [3] is given as 1.11 Ratio. In assay [5], the “P-Selectin [Ratio]: normalized ratio of %-inhibition of compound divided by %-inhibition of bimosiamose” value is 0.77 Ratio.

As to `Cc1oc(-c2ccc(NC(=O)c3cccc(-c4c(O)cc(O)cc4O)c3)cc2)cc1C(=O)O` [Compound 60, 2-Methyl-5-{4-[(2′,4′,6′-trihydroxy-biphenyl-3-carbonyl)-amino]-phenyl}-furan-3-carboxylic acid], the results for the IC50 in assay [2], in assay [1] and in assay [4] were 7.8 µM, 6.1 µM and 5.2 µM, respectively. The “E-Selectin [Ratio]: normalized ratio of %-inhibition of compound divided by %-inhibition of bimosiamose” value in assay [3] is 1.05 Ratio. Moreover, the “P-Selectin [Ratio]: normalized ratio of %-inhibition of compound divided by %-inhibition of bimosiamose” value in assay [5] was 0.99 Ratio.

Regarding `O=C(O)Cc1ccc(-c2ccccc2NC(=O)c2cccc(-c3c(O)cc(O)cc3O)c2)s1` [Compound 63, (5-{2-[(2′,4′,6′-Trihydroxy-biphenyl-3-carbonyl)-amino]-phenyl}-thiophen-2-yl)-acetic acid], the IC50 in assay [2] was found to be 21.9 µM; in assay [1] it was 17.4 µM; in assay [4], 17.4 µM. Further, in assay [3], the “E-Selectin [Ratio]: normalized ratio of %-inhibition of compound divided by %-inhibition of bimosiamose” value came to 1.23 Ratio. Moreover, the “P-Selectin [Ratio]: normalized ratio of %-inhibition of compound divided by %-inhibition of bimosiamose” value in assay [5] stood at 0.87 Ratio.

With `O=C(O)Cc1ccc(-c2cccc(NC(=O)c3cccc(-c4c(O)cc(O)cc4O)c3)c2)s1` [Compound 64, (5-{3-[(2′,4′,6′-trihydroxy-biphenyl-3-carbonyl)-amino]-phenyl}-thiophen-2-yl)-acetic acid], the IC50 in assay [2] was 5.7 µM; in assay [1], 6.3 µM; in assay [4], 6 µM. Also, in assay [3], the “E-Selectin [Ratio]: normalized ratio of %-inhibition of compound divided by %-inhibition of bimosiamose” value stood at 1.06 Ratio. Also, in assay [5], the “P-Selectin [Ratio]: normalized ratio of %-inhibition of compound divided by %-inhibition of bimosiamose” value is reported as 1.23 Ratio.

For `O=C(Nc1ccccc1-c1cccs1)c1cccc(-c2c(O)cc(O)cc2O)c1` [Compound 65, 2′,4′,6′-Trihydroxy-biphenyl-3-carboxylic acid (2-thiophen-2-yl-phenyl)-amide], the IC50 is 28.1 µM in assay [2], 15.5 µM in assay [1] and 8.2 µM in assay [4]. Moreover, the “E-Selectin [Ratio]: normalized ratio of %-inhibition of compound divided by %-inhibition of bimosiamose” value in assay [3] is 1.13 Ratio. In addition, the “P-Selectin [Ratio]: normalized ratio of %-inhibition of compound divided by %-inhibition of bimosiamose” value in assay [5] was found to be 0.99 Ratio.

Turning to `O=C(Nc1cccc(C(F)(F)F)c1)c1cccc(-c2c(O)cc(O)cc2O)c1` [Compound 66, 2′,4′,6′-Trihydroxy-biphenyl-3-carboxylic acid (3-trifluoromethyl-phenyl)-amide], in assay [3], the “E-Selectin [Ratio]: normalized ratio of %-inhibition of compound divided by %-inhibition of bimosiamose” value turned out to be 1.47 Ratio. For the same compound, the “P-Selectin [Ratio]: normalized ratio of %-inhibition of compound divided by %-inhibition of bimosiamose” value in assay [5] is on record as 1.19 Ratio.

For `O=C(O)c1cccc(NC(=O)c2cccc(-c3c(O)cc(O)cc3O)c2)c1` [Compound 67, 3-[(2′,4′,6′-Trihydroxy-biphenyl-3-carbonyl)-amino]-benzoic acid], the IC50 in assay [2] worked out at 27.3 µM; in assay [1], 25.2 µM; in assay [4], 23.3 µM. Besides, the “E-Selectin [Ratio]: normalized ratio of %-inhibition of compound divided by %-inhibition of bimosiamose” value in assay [3] is reported as 0.79 Ratio. Besides, the “P-Selectin [Ratio]: normalized ratio of %-inhibition of compound divided by %-inhibition of bimosiamose” value in assay [5] is 0.95 Ratio.

By IC50 is commonly meant the concentration at which inhibition is half-maximal. A high value points to weaker potency.

The values above are taken from patent US7919532B2, “Hydroxylated aromatic compounds” (Revotar Biopharmaceuticals AG, priority 2005, dated 2011).
